PMC5653977 (EMBO Molecular Medicine, 2017)
Structures can show the parent of a compound that is named as a salt.

tested on: NRG1-ERBB4 signaling; assay: Nrg1-ERBB4-PIK3R1 split TEV co-culture compound screen of the NIH Clinical Collection; type: cell-based, human; conditions: NIH Clinical Collection NCC-003 raw data; compounds ranked by Z-score; 'flagged' given instead of a Z-score
Description: For our HTS‐compatible split TEV assay approach, human full‐length ERBB4‐Cyt1 was fused to the NTEV fragment, a TEV protease cleavage site (tevS) and the artificial co‐transcriptional activator Gal4‐VP16 (ERBB4‐NTEV‐tevS‐GV); human PIK3R1 was fused to the CTEV fragment (PIK3R1‐CTEV) (Fig 1A). Upon ERBB4 activation, PIK3R1 is recruited to the receptor resulting in a reconstituted protease activity that cleaves off GV. In turn, released GV translocates to the nucleus and binds to upstream activating sequences (UAS) to activate the transcription of a firefly luciferase reporter gene (Fig 1A). A constitutively expressed Renilla luciferase driven under the control of the human thymidine kinase (TK) promoter was used as control to address off‐target effects related to toxicity.
For small molecule screening, the NIH‐NCC Clinical Collection library (sets NCC‐003 and NCC‐201) was used containing 727 small molecules that are FDA‐approved and have a history in clinical applications (www.nihclinicalcollection.com). A Hamilton Labstar robot connected to 37 and 4°C incubators for cell incubation and compound storage and application (Cytomat automated incubator, ThermoScientific) and to a luciferase reader (Berthold Technologies) was used to automatically perform the screening. […] Each batch was screened three times.
For one 96‐well plate, 4 × 10^6 PC12 cells were harvested and diluted in 5 ml assay medium (phenol red‐free DMEM (low glucose, Life Technologies), 10% FCS, 5% HS, no antibiotics). The split TEV assay plasmids (2 μg pcDNA3_ERBB4‐NTEV‐tevS‐GV‐2xHA, 2 μg pTag4C_PIK3R1‐CTEV‐2xHA, 2 μg p5xUAS_firefly luciferase, 2 μg pTK_Renilla luciferase, and 0.5 μg pECFP‐C1 for examining transfection efficiency) were diluted in 2.5 ml Opti‐MEM (Life Technologies) and vortexed. In parallel, 20 μl of the transfection reagent Lipofectamine 2000 was diluted in 2.5 ml Opti‐MEM and vortexed.
For plating of one 96‐well plate, 10 ml suspension, containing the 4 × 10^6 in solution‐transfected cells, was placed in the bubble paddle reservoir of the Hamilton Cellstar robot. 100 μl was seeded per 96‐well using the 96‐tip pipetting head. The homogeneity of the cell suspension was guaranteed over time by mild stirring using the paddling device inside the reservoir. For five plates each, 50 ml of additional cell suspension was used to allow for losses of inaccessible volume.
The cells were allowed to express the plasmids for 24 h before compounds were added. Proper expression and transfection efficiency were verified by ECFP expression on a clear control plate. The compounds were applied in a final concentration of 10 μM using DMSO as diluent. […] Thirty minutes later, 10,000 Nrg1‐expressing PC12 cells in 100 μl assay medium were seeded on top. 24 h after addition of the compounds, the cells were lysed using 40 μl Passive Lysis buffer (Promega) and subjected to a Dual Luciferase Assay (Promega) according to the manufacturer's instructions. The data were analyzed in R Bioconductor using the package cellHTS2 (http://www.bioconductor.org/packages/devel/bioc/html/cellHTS2.html), assessed using the z‐score, and visualized using the program Mondrian (http://stats.math.uni-augsburg.de/mondrian/).

For `CC(C)CC(N(C)C)C1(c2ccc(Cl)cc2)CCC1.Cl` (centres unmarked) [SIBUTRAMINE HCl], the Z-SCORE was -1.35.

For `CN(C)CCOc1ccc(/C(=C(/CCCl)c2ccccc2)c2ccccc2)cc1` [TOREMIFENE CITRATE], the Z-SCORE was “flagged”.

same assay, conditions: compound screen of the NIH Clinical Collection, sheet raw data NCC-003; compounds ranked by Z-score

Compared with `CC(C)NCC(O)c1ccc(NS(C)(=O)=O)cc1` (centres unmarked) [Sotalol hydrochloride], `CC(C)c1ccc2oc3nc(N)c(C(=O)O)cc3c(=O)c2c1` [Amlexanox, reference compound] is higher in Z-SCORE: 1.57 for the first, 4.7 for the second.

Going from `O=C(O)COCCN1CCN([C@H](c2ccccc2)c2ccc(Cl)cc2)CC1` [LEVOCETIRIZINE] to `CCOC(=O)[C@H](CCc1ccccc1)N[C@H]1CCc2ccccc2N(CC(=O)O)C1=O` [BENAZEPRIL HCl], the Z-SCORE rises from 0.15 to 0.26.

Going from `CN1CCCCC1CCN1c2ccccc2Sc2ccc([S+](C)[O-])cc21` (centres unmarked) [Mesoridazine] to `Cc1nccn1CC1CCc2c(c3ccccc3n2C)C1=O.Cl` (centres unmarked) [ONDANSETRON HYDROCHLORIDE], the Z-SCORE rises from -0.53 to 0.51.

Compared with `OCCN1C[C@H](O)[C@@H](O)[C@H](O)[C@H]1CO` [MIGLITOL], `Nc1nc(Cl)nc2c1ncn2[C@@H]1O[C@H](CO)[C@@H](O)[C@H]1O` [2-CHLOROADENOSINE] is higher in Z-SCORE: -0.33 for the first, 0.61 for the second.

Going from `CCCN[C@H]1CCc2nc(N)sc2C1` [Pramipexole] to `CCN1CCC[C@H]1CNC(=O)c1cc(S(N)(=O)=O)ccc1OC` [LEVOSULPIRIDE], the Z-SCORE falls from -0.29 to -0.53.

Compared with `O=C1Nc2ccc(Cl)cc2C(c2ccccc2Cl)=NC1O` (centres unmarked) [Lorazepam], `Cc1c(C(=O)NN2CCCCC2)nn(-c2ccc(Cl)cc2Cl)c1-c1ccc(I)cc1` [AM-251] is lower in Z-SCORE: 0.53 for the first, -0.56 for the second.

First: CCC1=C(C)CN(C(=O)NCCc2ccc(S(=O)(=O)NC(=O)N[C@H]3CC[C@H](C)CC3)cc2)C1=O [GLIMEPIRIDE]
Second: COCCOC(=O)C1=C(C)NC(C)=C(C(=O)OC(C)C)C1c1cccc([N+](=O)[O-])c1 (centres unmarked) [NIMODIPINE]
The Z-SCORE of the first is higher: 0.02 for the first, -0.83 for the second.

First: COc1cc(OC)c(C(=O)CCCN2CCCC2)c(OC)c1.Cl [Buflomedil HCl]
Second: COc1nc(C)nc(Cl)c1NC1=NCCN1.Cl [MOXONIDINE HCl]
The Z-SCORE of the first is higher: 0.75 for the first, 0.68 for the second.

Work on `Cc1onc(-c2ccccc2)c1-c1ccc(S(N)(=O)=O)cc1` [VALDECOXIB] yielded a Z-SCORE of 0.19.

same assay, conditions: compounds at 10 μM, 24 h; PC12 split TEV assay cells co-cultured with Nrg1-expressing PC12 cells; analysed with cellHTS2

First: CCc1cc(C(N)=S)ccn1 [Ethionamide, reference compound]
Second: NNC(=O)c1ccncc1 [Isoniazid, reference compound]
The Z-SCORE of the first is higher: 0.42 for the first, -0.38 for the second.

Compared with `CCCCNC(=O)NS(=O)(=O)c1ccc(C)cc1` [Tolbutamide, reference compound], `CC1=C(C/C=C(\C)CCC[C@H](C)CCC[C@H](C)CCCC(C)C)C(=O)c2ccccc2C1=O` [Phylloquinone, reference compound] is lower in Z-SCORE: 0.32 for the first, -0.1 for the second.

Going from `O=C(O)c1cc(-c2ccc(F)cc2F)ccc1O` [Diflunisal, reference compound] to `CC(C)c1ccc2oc3nc(N)c(C(=O)O)cc3c(=O)c2c1` [Amlexanox, reference compound], the Z-SCORE rises from -0.6 to 4.7.

First: COc1cc2nc(N3CCN(C(=O)C4COc5ccccc5O4)CC3)nc(N)c2cc1OC (centres unmarked) [Doxazosin, reference compound]
Second: CC(=O)CC(c1ccccc1)c1c(O)c2ccccc2oc1=O (centres unmarked) [WARFARIN SODIUM, reference compound]
The Z-SCORE of the first is higher: 0.51 for the first, -0.02 for the second.

First: CC(=O)OCC(=O)[C@@]1(O)CC[C@H]2[C@@H]3C[C@H](C)C4=CC(=O)C=C[C@]4(C)[C@H]3[C@@H](O)C[C@@]21C [DEPO-MEDROL, reference compound]
Second: C[C@H]1C[C@@H]2[C@H]([C@@H](O)C[C@@]3(C)[C@H]2CC[C@]3(O)C(=O)CO)[C@@]2(C)C=CC(=O)C=C12 [METHYLPREDNISOLONE, reference compound]
The Z-SCORE of the first is higher: 0.97 for the first, 0.65 for the second.

First: C[N+]1(C)CCCC(OC(=O)C(O)(c2ccccc2)c2ccccc2)C1 (centres unmarked) [MEPENZOLATE BROMIDE, reference compound]
Second: c1ccc(CC2=NCCN2)cc1 [Priscoline, reference compound]
The Z-SCORE of the first is lower: -0.58 for the first, 1.86 for the second.

For `CC(C)n1c(/C=C/C(O)CC(O)CC(=O)O)c(-c2ccc(F)cc2)c2ccccc21` (centres unmarked) [fluvastatin, reference compound], the Z-SCORE was “flagged”.
